# Assays:
# [1] = test system: angiotensin II-induced myometrial cell proliferation; assay: Inhibition of angiotensin II-induced myometrial cell proliferation, Coulter counter; assay type: cell-based, human; conditions: for inhibition of angiotensin II-mediated cell proliferation: FIG. 5, 1.00 μM
# Description: Tissue samples were placed into sterile calcium and magnesium-free HBSS containing penicillin (100 U/ml) and streptomycin (100 μg/ml) for transfer to the laboratory. Myometrial cells were isolated by collagenase digestion. Briefly, myometrium was finely chopped and incubated in HBSS containing 1 mg/ml collagenase IA, 20 mM Hepes, 100 U/L penicillin, 100 μg/ml streptomycin and 5 μg/ml fungizone at 37° C. until the cells were dispersed. Myometrial cells were obtained by centrifugation for 15 minutes at 400 g over 60% Percoll and the cells washed with HBSS. Myometrial cells were characterised by their ability to respond to oxytocin and staining for actin.
# Cells were maintained in 175 cm^2 flasks in Dulbecco's modified Eagle's medium (DMEM) containing 10% (v/v) fetal calf serum (FCS), 1% L-glutamine,20 mM Hepes and 1% antibiotic-antimycotic mixture (10,000 U penicillin, 10 μg streptomycin, and 25 μg ml^-1 fungizone) at 37° C. in a humidified atmosphere of air/CO2 (19:1) until 95% confluent. Thereafter, the cells were trypsinised, washed and re-plated at a density of 10×10^3 cells per well in 24-well plates in 1 ml of DMEM with 10% FCS for the proliferation studies. After 24 hrs, the medium was removed and replaced with serum-free DMEM. After a further 24 hrs, the experiments were initiated on quiescent monolayers of myometrial cells. […] The corresponding medium was replaced every 24 hrs with fresh medium.
# At defined time-points, the growth media was removed and the cells were washed with 1 ml of isotonic saline (0.9% sodium chloride), followed by the addition of 1 ml of 10 mM HEPES buffer containing 1.5 mM magnesium chloride, and 2 drops of Zap-oglobin (Coulter Electronics Ltd., Luton, Beds., UK) containing 2.5% acetic acid to each well. The 24-well plate was allowed to incubate at 37° C. for 10 min. After which, the suspended cells were pipetted up and down to disperse the cell clusters. The cell suspension was then added to 9 ml of counting solution containing 0.9% sodium chloride and 0.5% formalin in a Coulter counter container. […] The number of cells in each well was counted at the aperture size of 16 on the Coulter counter (Coulter Electronics Ltd., Luton, Beds U.K.). Three readings were taken for each well and a mean value of the three readings obtained. The mean (±SD) value of cell counts from the triplicate wells was calculated.
# Myometrium cells were maintained in Dulbecco's modified Eagle's medium (MD) with 10% (v/v) FCS, containing 1% L-glutamine, 20 mM HEPES and 1% antibiotic-antimycotic mixture (10,000 U penicillin, 10 mg streptomycin) at 37° C. in a humidified atmosphere of air/CO2 (19:1) until 95% confluent. […] The cell growth was measured at day 4 and day 6 by counting cell numbers in a Coulter Counter. […]
# [2] = test system: myometrial cells; assay: Myometrial cell proliferation, cell counts in Coulter counter; assay type: cell-based, human; conditions: for cell count, 0 day (+/-SD) / cell count, 4 days (+/-SD) / cell count, 6 days (+/-SD): Table 1, in 1% FCS
# Description: Tissue samples were placed into sterile calcium and magnesium-free HBSS containing penicillin (100 U/ml) and streptomycin (100 μg/ml) for transfer to the laboratory. Myometrial cells were isolated by collagenase digestion. Briefly, myometrium was finely chopped and incubated in HBSS containing 1 mg/ml collagenase IA, 20 mM Hepes, […], 100 μg/ml streptomycin and 5 μg/ml fungizone at 37° C. until the cells were dispersed. Myometrial cells were obtained by centrifugation for 15 minutes at 400 g over 60% Percoll and the cells washed with HBSS. Myometrial cells were characterised by their ability to respond to oxytocin and staining for actin.
# Cells were maintained in 175 cm^2 flasks in Dulbecco's modified Eagle's medium (DMEM) containing 10% (v/v) fetal calf serum (FCS), 1% L-glutamine,20 mM Hepes and 1% antibiotic-antimycotic mixture (10,000 U penicillin, […], and 25 μg ml^-1 fungizone) at 37° C. in a humidified atmosphere of air/CO2 (19:1) until 95% confluent. Thereafter, the cells were trypsinised, washed and re-plated at a density of 10×10^3 cells per well in 24-well plates in 1 ml of DMEM with 10% FCS for the proliferation studies. After 24 hrs, the medium was removed and replaced with serum-free DMEM. After a further 24 hrs, the experiments were initiated on quiescent monolayers of myometrial cells. To the serum-starved myometrial cells was added either angiotensin II (0.1 μm or 1.0 μm) in the presence or absence of 1% FCS or bFGF (20 ng/ml) or FCS (1%) alone or DuP753 with or without angiotensin II (0.1 μM) and cell growth measured at day 4 and day 6 by counting cell numbers in a Coulter counter as described below. The corresponding medium was replaced every 24 hrs with fresh medium.
# Calibration of the Coulter counter was achieved by counting the myometrium cell suspension at reduced aperture size ranging from 0 to 32. A calibration curve was constructed from the cell counts on the function of the aperture size, and the aperture size corresponding to the middle point of the plateau part of the calibration curve was used for the cell counting. The aperture size used for myometrium cell counting was 16.
# At defined time-points, the growth media was removed and the cells were washed with 1 ml of isotonic saline (0.9% sodium chloride), followed by the addition of 1 ml of 10 mM HEPES buffer containing 1.5 mM magnesium chloride, and 2 drops of Zap-oglobin (Coulter Electronics Ltd., Luton, Beds., UK) containing 2.5% acetic acid to each well. The 24-well plate was allowed to incubate at 37° C. for 10 min. After which, the suspended cells were pipetted up and down to disperse the cell clusters. The cell suspension was then added to 9 ml of counting solution containing 0.9% sodium chloride and 0.5% formalin in a Coulter counter container. Each well was washed three times with the counting solution from the same container and effluent collected in the same container. The number of cells in each well was counted at the aperture size of 16 on the Coulter counter (Coulter Electronics Ltd., Luton, Beds U.K.). Three readings were taken for each well and a mean value of the three readings obtained. The mean (±SD) value of cell counts from the triplicate wells was calculated.
# As discussed above, FIG. 3(A) illutrates the effect of angiotensin II on myometrial cell proliferation. Myometrium cells were maintained in Dulbecco's modified Eagle's medium (MD) with 10% (v/v) FCS, containing 1% L-glutamine, 20 mM HEPES and 1% antibiotic-antimycotic mixture (10,000 U penicillin, 10 mg streptomycin) at 37° C. in a humidified atmosphere of air/CO2 (19:1) until 95% confluent. For the proliferation studies, the cells were plated at a density of 10×10^3 cells per well in 24 well plates in 1 ml of DMEM with 10% FCS. After 24 hrs the medium was removed and replaced with serum-free DMEM. After a further 24 hrs, the experiment was initiated on quiescent monolayers of myometrial cells. […]
# [3] = test system: non-AT1/non-AT2 angiotensin II recognition site; assay: [125I]angiotensin II receptor autoradiography on myometrium/fibroid sections; assay type: binding, human; conditions: for displacement of [125I]angiotensin II from non-AT1/non-AT2 angiotensin II recognition site: FIG. 2, unlabeled ligand 0.1 nM, human non-pregnant myometrium and fibroid sections
# Description: Frozen myometrium and fibroid tissues were surrounded in embedding medium (OCT compound, Miles Scientific) before 20 μm sections were cut using a cryostat (-15 to -1 9° C.) and thaw mounted onto gelatin-coated glass slides for receptor autoradiographic studies. Sections were stored (less than 2 week) desiccated at -80° C. until used.
# Slide mounted human myometrial/fibroid sections were removed from storage and allowed approximately 30 min to equilibrate to room temperature. To reduce endogenous levels of angiotensin II in the tissue, the sections were preincubated for 60 min in incubation buffer (mM; sodium chloride, 150; sodium dihydrogen phosphate, 50; magnesium chloride, 10; ethyleneglycol-bis-(β-amino-ethyl ether)-N,N'-tetra-acetic acid, 5 and 0.4% w/v bovine serum albumin, pH 7.4) at 25° C. […] Immediately following incubation, the tissue sections were washed in ice-cold incubation buffer for 2 min and dipped (1 s) in ice-cold distilled water to remove buffer salts. The sections were rapidly dried in a stream of cold dry air and exposed to Hyperfilm-[^3 H]
# [4] = test system: myometrial cells; assay: [3H]-thymidine incorporation into DNA (DNA synthesis); assay type: cell-based, human; conditions: FIG. 4; Captopril 0.1 and 1.0 mM; 48 h; serum-free medium
# Description: Myometrial cells prepared as described previously were resuspended in culture medium containing DMEM supplemented with 10% (v/v) FCS, 10 mM L-glutamine, 20 mM hepes, 100 U/mi penicillin and 100/μg/ml streptomycin in 24 well plates at a density of approximately 250×10^3 cells per well and maintained at 37° C. in a humidified atmosphere of air/CO2 (19:1).
# DNA synthesis was assayed by measuring [^3 H]-thymidine incorporation into DNA. Subconfluent myometrial cells were made quiescent by incubation with serum-free medium for 48 h, the medium being replaced with serum-free medium containing 0.2% (w/v) bovine serum albumin (BSA) and [^3 H]-thymidine (0.2 μCi/well). The cells were further incubated for 48 h in the presence of angiotensin-converting enzyme (ACE) inhibitor (0.1 and 1.0 mM Captopril, hatched and solid columns respectively) or angiotensin II (100 nM AgII, crossed column). The medium was then removed and the cells incubated with 10% cold trichloroacetic acid TCA) at 4° C. for 15 min. TCA-precipitated material was redissolved in 0.2 M NaOH and the radioactivity determined by liquid scintillation counting in a β-scintillation analyser. Positive and negative controls for proliferation were established by incubating cells with 10% fetal calf serum (square column) and by growth in the absence of the agonist in serum-free medium (open column).
molecule,measurement,setting,value
Cc1cc(Cn2cnc3c2CC(C(=O)O)N(C(=O)C(c2ccccc2)c2ccccc2)C3)ccc1N (stereo not drawn) [PD123177],inhibition of angiotensin II-mediated cell proliferation,[1],significantly inhibited
same,inhibition of angiotensin II-mediated cell growth,[1]; preliminary data,inhibits
"angiotensin II (DRVYIHPF; Angiotensin-2; UniProt P01019 25-32, looked up)",increase in myometrial cell proliferation compared to cells in culture medium devoid of angiotensin II,"[2]; FIG. 3(A), 0.1 μM, after six days in culture",~100%
same,"cell count, 0 day (+/-SD)",[2],64.33 +/- 2.73
same,"cell count, 4 days (+/-SD)",[2],167.33 +/- 21.55
same,"cell count, 6 days (+/-SD)",[2],333.67 +/- 7.51
same,intensity of non-AT1/non-AT2 angiotensin II recognition site labelling in fibroid tissue,"[3]; FIG. 1, cold angiotensin II (1 μM)",only disappears
Sar-Thr-angiotensin II,displacement of [125I]angiotensin II from non-AT1/non-AT2 angiotensin II recognition site,[3],can selectively displace
C[C@H](CS)C(=O)N1CCC[C@H]1C(=O)O [Captopril],"reduction of DNA synthesis, of control (0% FCS)",[4],~50%
Sar-Ala-angiotensin II,displacement of [125I]angiotensin II from non-AT1/non-AT2 angiotensin II recognition site,[3],can selectively displace
CCCCc1nc(Cl)c(CO)n1Cc1ccc(-c2ccccc2-c2nn[nH]n2)cc1 [DuP753],inhibition of the effects of angiotensin II on cell proliferation,"[1]; FIG. 3(B), DuP753 1 μM, angiotensin II 0.1 μM, 1% FCS",inhibits
same,inhibition of angiotensin II-mediated cell proliferation,[1],significantly inhibited
"bFGF: Basic fibroblast growth factor, classic growth factor, from RD Systems","cell count, 0 day (+/-SD)",[2],63.90 +/- 1.88
same,"cell count, 4 days (+/-SD)",[2],167.33 +/- 25.11
same,"cell count, 6 days (+/-SD)",[2],307.33 +/- 49.69

# Source: patent publication US5981470A, “Uterine fibroid treatment” (The University of Birmingham, priority 1994, dated 1999)
